Experimental data: patent US7803825B2, “Aminoalkylazole derivatives as histamine-3 antagonists” (Wyeth LLC, priority 2007, dated 2010)
Structures can show the parent of a compound that is named as a salt.

molecular target: T1, histamine-3 (H3) receptor (Homo sapiens, UniProt Q9Y5N1); assay: Methyl Histamine Binding in Human Histamine-3 Receptor Cell Line; settings: membranes of stably transfected HEK293T cells, radioligand 1 nM, Ki from IC50 by Cheng-Prusoff
T1 construct: expressed in transfected cells; host or cells: HEK293T
T1 sequence (Q9Y5N1 whole entry): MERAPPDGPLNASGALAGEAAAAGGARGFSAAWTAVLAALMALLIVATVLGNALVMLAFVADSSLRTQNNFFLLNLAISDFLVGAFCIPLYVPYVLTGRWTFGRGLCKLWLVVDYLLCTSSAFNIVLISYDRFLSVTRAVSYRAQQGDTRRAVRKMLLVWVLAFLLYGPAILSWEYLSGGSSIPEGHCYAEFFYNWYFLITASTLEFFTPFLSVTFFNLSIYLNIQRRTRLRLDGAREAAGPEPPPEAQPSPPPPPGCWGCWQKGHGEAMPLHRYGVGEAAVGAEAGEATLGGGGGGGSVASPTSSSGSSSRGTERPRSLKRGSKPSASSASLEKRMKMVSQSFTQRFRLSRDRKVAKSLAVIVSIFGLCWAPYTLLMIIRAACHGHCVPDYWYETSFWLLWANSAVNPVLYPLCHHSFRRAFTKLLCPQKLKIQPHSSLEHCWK
Method: Evaluation of Methyl Histamine Binding in Human Histamine-3 Receptor Cell Line
The affinity of test compounds for the histamine-3 (H3) receptor is evaluated in the following manner. Stably transfected HEK293T cells are grown in DMEM containing 10% heat inactivated FBS and G-418 (500 ug/ml). Cells are scraped from the plate, transferred to centrifuge tubes, washed one time in PBS by centrifugation in a Sorvall RT7 Plus centrifuge (2000 rpm 10 minutes, 4° C.). The resulting pellets are stored at 80° C. until ready for use. Cells are re-suspended in buffer (50 mM Tris pH=7.5) and placed in a Dounce homogenizer, douncing ten times to homogenize cells. The homogenate is spun down by centrifugation (Sorvall RT7 Plus, 1800 rpm 10 minutes, 4° C.). The supernatant is placed in a Corex tube and spun down by centrifugation (Sorvall RC 5c Plus, 17,000 rpm 20 minutes, 4° C.). The pellet is resuspended in buffer (50 mM Tris, pH 7.5). Protein concentration (ug/ul) is determined using the Micro-BCA Protein Determination. The binding assay is set up in a 96 well microtiter plate in a total volume of 250 uL. Non-specific binding is determined in the presence of 10 uM clobenpropit. The final radioligand concentration is 1 nM. The test compound is serially diluted using the Beckman Biomek2000 to a final approximate range of 100 uM to 100 pM. Membranes are suspended in buffer, homogenized in 2 bursts of ten seconds using a Vitris mechanical homogenizer set at power setting 5. Ten μg of membranes are added to each well. Following a one hour incubation at 30° C., the reaction is terminated by the addition of ice cold buffer and rapid filtration with a Packard Filtermate Harvester through a GF/B filter pre-soaked with 1% PEI for one hour. The plate is dried for one hour at 37° C. and 60 μL Microscint Scintillant is added to each well. The CPM per well is measured on a Packard Top Count NXT. Ki values are determined in nM. The Ki is calculated from the IC50 (i.e. the concentration of competing ligand which displaces 50% of the specific binding of the radioligand). CPM values are expressed as % specific binding and plotted vs compound concentration. A curve is fitted using a four-parameter logistic fit and the IC50 value is determined. The Ki is calculated from this using the Cheng-Prusoff equation: […]=IC50/1+(L/Kd) where L=concentration of free radioligand used in the assay, and Kd is the dissociation constant of the radioligand for the receptor. L is determined for each experiment by counting an aliquot of the diluted radioligand (corresponding to that added to each well) and the Kd has previously been determined under identical conditions for this cell line/radioligand.

Row | Compound | Ki
1 | Cn1c(Cc2ccc(-c3nc(CN4CCCC4)co3)cc2)nc2ccccc21 [Example 67, 1-Methyl-2-{4-[4-(pyrrolidin-1-ylmethyl)-1,3-oxazol-2-yl]benzyl}-1H-benzimidazole Fumarate] | ≤ 10 nM
2 | c1ccc2c(c1)ncn2Cc1ccc(-c2nc(CN3CCCC3)cs2)cc1 [Example 71, 1-{4-[4-(Pyrrolidin-1-ylmethyl)-1,3-thiazol-2-yl]benzyl}-1H-benzimidazole Hydrochloride] | 10.1 to 25 nM
3 | CC1CCCN1Cc1csc(-c2ccc(Cn3cnc4ccccc43)cc2)n1 (centres unmarked) [Example 72, 1-(4-{4-[(2-methylpyrrolidin-1-yl)methyl]-1,3-thiazol-2-yl}benzyl)-1H-benzimidazole] | ≤ 10 nM
4 | c1ccc2c(c1)ncn2Cc1ccc(-c2nc(CN3CCCCC3)cs2)cc1 [Example 73, 1-{4-[4-(piperidin-1-ylmethyl)-1,3-thiazol-2-yl]benzyl}-1H-benzimidazole] | ≤ 10 nM
5 | c1ccc2c(c1)ncn2Cc1ccc(-c2nc(CN3CCCCCC3)cs2)cc1 [Example 74, 1-{4-[4-(azepan-1-ylmethyl)-1,3-thiazol-2-yl]benzyl}-1H-benzimidazole] | ≤ 10 nM
6 | c1ccc2c(c1)ccn2Cc1ccc(-c2nc(CN3CCCC3)co2)cc1 [Example 81, 1-{4-[4-(pyrrolidin-1-ylmethyl)-1,3-oxazol-2-yl]benzyl}-1H-indole Hydrochloride] | 50.1 to 100 nM
7 | c1ccc2c(c1)cnn2Cc1ccc(-c2nc(CN3CCCC3)co2)cc1 [Example 88, 1-{4-[4-(pyrrolidin-1-ylmethyl)-1,3-oxazol-2-yl]benzyl}-1H-indazole] | 50.1 to 100 nM
8 | C[C@@H]1CCCN1Cc1coc(-c2ccc(Cn3ncc4ccccc43)cc2)n1 [Example 94, 1-[4-(4-{[(2R)-2-methylpyrrolidin-1-yl]methyl}-1,3-oxazol-2-yl)benzyl]-1H-indazole] | 50.1 to 100 nM
9 | C[C@@H]1CCCN1Cc1coc(-c2ccc(Cn3ncc4cc(F)ccc43)cc2)n1 [Example 95, 5-fluoro-1-[4-(4-{[(2R)-2-methylpyrrolidin-1-yl]methyl}-1,3-oxazol-2-yl)benzyl]-1H-indazole] | 50.1 to 100 nM
10 | C[C@@H]1CCCN1Cc1coc(-c2ccc(Cn3ncc4ccc(F)cc43)cc2)n1 [Example 96, 6-fluoro-1-[4-(4-{[(2R)-2-methylpyrrolidin-1-yl]methyl}-1,3-oxazol-2-yl)benzyl]-1H-indazole] | 50.1 to 100 nM
11 | C[C@H]1CCCN1Cc1coc(-c2ccc(Cn3ncc4ccccc43)cc2)n1 [Example 97, 1-[4-(4-{[(2S)-2-methylpyrrolidin-1-yl]methyl}-1,3-oxazol-2-yl)benzyl]-1H-indazole] | ≤ 10 nM
12 | C[C@H]1CCCN1Cc1coc(-c2ccc(Cn3ncc4cc(F)ccc43)cc2)n1 [Example 98, 5-fluoro-1-[4-(4-{[(2S)-2-methylpyrrolidin-1-yl]methyl}-1,3-oxazol-2-yl)benzyl]-1H-indazole] | ≤ 10 nM
13 | C[C@H]1CCCN1Cc1coc(-c2ccc(Cn3ncc4ccc(F)cc43)cc2)n1 [Example 99, 6-fluoro-1-[4-(4-{[(2S)-2-methylpyrrolidin-1-yl]methyl}-1,3-oxazol-2-yl)benzyl]-1H-indazole] | 10.1 to 25 nM
14 | Fc1ccc2c(cnn2Cc2ccc(-c3nc(CN4CCCC4)co3)cc2)c1 [Example 100, 5-fluoro-1-{4-[4-(pyrrolidin-1-ylmethyl)-1,3-oxazol-2-yl]benzyl}-1H-indazole] | 10.1 to 25 nM
15 | Fc1ccc2cnn(Cc3ccc(-c4nc(CN5CCCC5)co4)cc3)c2c1 [Example 101, 6-fluoro-1-{4-[4-(pyrrolidin-1-ylmethyl)-1,3-oxazol-2-yl]benzyl}-1H-indazole] | 25.1 to 50 nM
16 | NCc1ccc2c(cnn2Cc2ccc(-c3nc(CN4CCCC4)co3)cc2)c1 [Example 102, 1-(1-{4-[4-(pyrrolidin-1-ylmethyl)-1,3-oxazol-2-yl]benzyl}-1H-indazol-5-yl)methanamine] | ≤ 10 nM
17 | c1ccc2c(c1)ncn2Cc1ccc(-c2ncc(CN3CCCC3)o2)cc1 [Example 104, 1-{4-[5-(pyrrolidin-1-ylmethyl)-1,3-oxazol-2-yl]benzyl}-1H-benzimidazole] | > 100 nM
18 | CC1CCCN1Cc1cnc(-c2ccc(Cn3cnc4ccccc43)cc2)o1 (centres unmarked) [Example 105, 1-(4-{5-[(2-methylpyrrolidin-1-yl)methyl]-1,3-oxazol-2-yl}benzyl)-1H-benzimidazole] | ≤ 10 nM

Row | Compound | Ki
19 | C[C@H]1CCCN1Cc1cnc(-c2ccc(Cn3cnc4ccccc43)cc2)o1 [Example 106, 1-[4-(5-{[(2S)-2-methylpyrrolidin-1-yl]methyl}-1,3-oxazol-2-yl)benzyl]-1H-benzimidazole] | ≤ 10 nM
20 | c1ccc2c(c1)ncn2Cc1ccc(-c2ncc(CN3CCCCC3)o2)cc1 [Example 107, 1-{4-[5-(piperidin-1-ylmethyl)-1,3-oxazol-2-yl]benzyl}-1H-benzimidazole] | > 100 nM
21 | C[C@@H]1CCCN1Cc1cnc(-c2ccc(Cn3cnc4ccccc43)cc2)o1 [Example 108, 1-[4-(5-{[(2R)-2-methylpyrrolidin-1-yl]methyl}-1,3-oxazol-2-yl)benzyl]-1H-benzimidazole] | 25.1 to 50 nM
22 | CC1CCCN(Cc2cnc(-c3ccc(Cn4cnc5ccccc54)cc3)o2)C1 (centres unmarked) [Example 109, 1-(4-{5-[(3-methylpiperidin-1-yl)methyl]-1,3-oxazol-2-yl}benzyl)-1H-benzimidazole] | > 100 nM
23 | CC1(C)CC2CC(C)(CN2Cc2cnc(-c3ccc(Cn4cnc5ccccc54)cc3)o2)C1 (centres unmarked) [Example 110, 1-(4-{5-[(1,3,3-trimethyl-6-azabicyclo[3.2.1]oct-6-yl)methyl]-1,3-oxazol-2-yl}benzyl)-1H-benzimidazole] | > 100 nM
24 | c1ccc2c(c1)ncn2Cc1ccc(-c2ncc(CN3CCCCCC3)o2)cc1 [Example 111, 1-{4-[5-(azepan-1-ylmethyl)-1,3-oxazol-2-yl]benzyl}-1H-benzimidazole] | > 100 nM
25 | CCN(C)Cc1cnc(-c2ccc(Cn3cnc4ccccc43)cc2)o1 [Example 112] | > 100 nM
26 | CCN(CC)Cc1cnc(-c2ccc(Cn3cnc4ccccc43)cc2)o1 [Example 113, N-({2-[4-(1H-benzimidazol-1-ylmethyl)phenyl]-1,3-oxazol-5-yl}methyl)-N-ethylethanamine] | > 100 nM
27 | FC(F)(F)c1nc2ccccc2n1Cc1ccc(-c2nc(CN3CCCC3)co2)cc1 [Example 114] | ≤ 10 nM
28 | c1ccc(-c2nc3ccccc3n2Cc2ccc(-c3nc(CN4CCCC4)co3)cc2)cc1 [Example 115, 2-phenyl-1-{4-[4-(pyrrolidin-1-ylmethyl)-1,3-oxazol-2-yl]benzyl}-1H-benzimidazole] | ≤ 10 nM
29 | C[C@@H]1CCCN1Cc1coc(-c2ccc(Cn3c(C(F)(F)F)nc4ccccc43)cc2)n1 [Example 116, 1-[4-(4-{[(2R)-2-methylpyrrolidin-1-yl]methyl}-1,3-oxazol-2-yl)benzyl]-2-(trifluoromethyl)-1H-benzimidazole] | 10.1 to 25 nM
30 | C[C@H]1CCCN1Cc1coc(-c2ccc(Cn3c(-c4ccccc4)nc4ccccc43)cc2)n1 [Example 117, 1-[4-(4-{[(2S)-2-methylpyrrolidin-1-yl]methyl}-1,3-oxazol-2-yl)benzyl]-2-phenyl-1H-benzimidazole] | ≤ 10 nM
31 | C[C@H]1CCCN1Cc1coc(-c2ccc(Cn3c(C(F)(F)F)nc4ccccc43)cc2)n1 [Example 118, 1-[4-(4-{[(2S)-2-methylpyrrolidin-1-yl]methyl}-1,3-oxazol-2-yl)benzyl]-2-(trifluoromethyl)-1H-benzimidazole] | 10.1 to 25 nM
32 | C[C@@H]1CCCN1Cc1coc(-c2ccc(Cn3c(-c4ccccc4)nc4ccccc43)cc2)n1 [Example 119, 1-[4-(4-{[(2R)-2-methylpyrrolidin-1-yl]methyl}-1,3-oxazol-2-yl)benzyl]-2-phenyl-1H-benzimidazole] | 10.1 to 25 nM
33 | FC(F)(F)c1nc2ccccc2n1Cc1ccc(-c2nc(CN3CCCCCC3)co2)cc1 [Example 120, 1-{4-[4-(azepan-1-ylmethyl)-1,3-oxazol-2-yl]benzyl}-2-(trifluoromethyl)-1H-benzimidazole] | 10.1 to 25 nM
34 | c1ccc(-c2nc3ccccc3n2Cc2ccc(-c3nc(CN4CCCCCC4)co3)cc2)cc1 [Example 121, 1-{4-[4-(azepan-1-ylmethyl)-1,3-oxazol-2-yl]benzyl}-2-phenyl-1H-benzimidazole] | 25.1 to 50 nM
35 | FC(F)(F)c1nc2ccccc2n1Cc1ccc(-c2nc(CN3CCCCC3)co2)cc1 [Example 122, 1-{4-[4-(piperidin-1-ylmethyl)-1,3-oxazol-2-yl]benzyl}-2-(trifluoromethyl)-1H-benzimidazole] | 10.1 to 25 nM
